Data from US11685741B2, “Fluorescent probes” (University of Massachusetts, priority 2017, dated 2023).

Test system: human fibroblast cells (ws1)
Test: Confocal imaging of Fe3+ with Rh-PK in ws1 cells
Assay type: cell-based
Method: Human SH-SY5Y neuroblastoma cells and primary fibroblast ws1 cells were obtained from ATCC (American Type Culture Collection). Cells were maintained in a 1:1 mixture of Eagle's Minimal Essential medium (ATCC) and Ham's F12 medium (ATCC) supplemented with 10% fetal bovine serum (FBS, ATCC) without antibiotics and incubated at 37° C. in a humidified 5% CO2 atmosphere. The cells were routinely sub-cultured using 0.05% trypsin-EDTA solution (ATCC). The cells were seeded onto 2-chamber slides for 48 h at 5×10^4 cells/chamber and grown until each chamber was 20-30% confluent. A stock solution of Rh-PK ([…] in […]) was diluted to a concentration of […] in culture medium without FBS. […] The fluorescence responses of the sensor in living cells were measured under a Zeiss LSM 710 laser scanning confocal microscope. […] The REUSE function controlled by Zeiss software was applied to guarantee that all spectra were recorded under the same instrumental conditions.
The ability of Rh-PK to track Fe^3+ in live human fibroblast cells (ws1) was tested via a laser scanning confocal microscope (Zeiss LSM 710). […] Turn on fluorescence was observed, which is likely being triggered by endogenous labile Fe^3+. […]
FIG. 17A to FIG. 17C show the distribution of exchangeable Fe^3+ pools in live fibroblast cells (ws1). […] FIG. 17A is the Rh-PK-Fe3+ fluorescence intensity collected at 547-703 nm (red). […]

## CCN(CC)c1ccc2c(c1)Oc1cc(N(CC)CC)ccc1C21c2ccccc2C(=O)N1CC/N=C(\C)c1cccc(C(C)=O)n1 [Rh-PK, (E)-2-(2-((1-(6-acetylpyridin-2-yl)ethylidene)amino)ethyl)-3′,6′-bis(diethylamino)spiro[isoindoline-1,9′-xanthen]-3-one]
10 μM Rh-PK, cells loaded with 50 μM Fe^3+
  fluorescence of Fe^3+-loaded cells versus before loading: brighter and more widely distributed fluorescence signals
SIH 100 μM overnight, then Rh-PK
  fluorescence response after Fe^3+ pre-depletion: weaker fluorescence response
